Measurements as given in PMC4849758, “Rational Structure-Based Rescaffolding Approach to De Novo Design of Interleukin 10 (IL-10) Receptor-1 Mimetics” (PLoS ONE, 2016).
Bridge positions count the residues as written; N and C are the ends. Square brackets hold non-standard residues; d marks the D form. Peptide text beside a SMILES is read from it. * marks the point of attachment. Trp(5-OH) = N[C@@H](Cc1c[nH]c2ccc(O)cc12)C(=O)O; Butanoyl(4-guanidino) = N=C(N)NCCCC(=O)*

Tests used:
mIL-10C149Y [1] = biological target: T1, mIL-10C149Y (Mus musculus, UniProt P18893, C167Y); test: Thermal denaturation by circular dichroism (CD), Kd estimate from two-state unfolding model; assay type: binding, murine; details: 4.5 μM mimetic; for increase of native protein structure in presence of mimetic, percentage of the total change in the CD signal: at 332 K, average CD signal 215-230 nm, 2 μM mIL-10C149Y; for Kd: calculated from thermal denaturation CD data, 2 μM mIL-10C149Y dimer, two-state unfolding model, lower affinity limit reported
T1 construct: His8 tag (LEHHHHHHHH) from pET41b(+) (C); made in house
T1 sequence (P18893 19-178 C167Y): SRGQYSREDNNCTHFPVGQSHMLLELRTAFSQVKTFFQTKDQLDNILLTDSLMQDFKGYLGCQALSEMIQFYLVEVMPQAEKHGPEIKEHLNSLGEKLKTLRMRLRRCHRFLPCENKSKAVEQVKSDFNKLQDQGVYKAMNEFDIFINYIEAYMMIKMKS
Procedure: M1 was chemically synthesized, and its experimental binding affinity towards IL-10 was assessed by thermal stability measurements using circular dichroism (CD) and fluorescence (see materials and methods). For these studies, we used the readily available murine IL-10 mutant mIL-10C149Y in which Cys149 was replaced by the corresponding Tyr residue of the human protein, as it was previously shown to enhance protein refolding yield. Furthermore, this tyrosine would enhance the sensitivity of tryptophan fluorescence measurements (i.e. as stated above, it can act as energy donor for the tryptophan residue introduced as label in the mimetics).
Complex formation between M1 and mIL-10C149Y was determined by thermal denaturation using CD and the well-known negative ellipticity of IL-10 between 200 to 300 nm. […] The obtained curves shift to higher temperatures in the presence of M1. The shift is due to a lower degree of unfolded protein at any temperature in the presence of mimetic M1 as compared to the denaturation of mIL-10C149Y alone. […] At 332 K, the presence of M1 increased the native protein structure by 8%.
CD spectra were recorded with a J-815 instrument (Jasco, Gross-Umstadt, Germany) from 195 to 300 nm in 1-cm cuvettes at concentrations of 2 μM of mIL-10C149Y (dimer) and 4.5 μM of mimetics M1-M4. Ellipticity θ was recorded in millidegrees. Samples were heated from 298 to 364 K at a rate of 2 K/min under constant stirring to determine stabilization of IL-10/mimetic complexes. Estimates of binding affinities were derived with the assumption of a two state unfolding of mIL-10C149Y. The mimetics were assumed to stabilize exclusively the folded state. These simplifications allow applying equilibrium thermodynamics, such that the fraction Sn of the native state of mIL-10C149Y can be approximated: Sn = (1+ [M] Kd^-1 +Ku)^-1. Kd is the estimated dissociation constant of the mimetic, [M] its concentration. Ku is the temperature-dependent unfolding equilibrium constant (Ku = [denatured]/[native]) as measured by the unfolding curve of mIL-10C149Y in the absence of mimetics. […] In this case, the measured CD curves would be actually compatible with much higher mimetic affinities, because a local stabilization of the mimetic binding epitope on mIL-10C149Y is not counted as binding in the applied two state model but it is very likely to occur. For consistency, we have not explored the higher affinity limit that would still be compatible with the data. Instead, we report only the lower affinity range that complies with the assumptions, in order to prevent bias for overestimated mimetic affinities. […] Absolute thermodynamic parameters could only be obtained by isothermal titration calorimetry with the most promising mimetics. This of course required the initial confirmation of the binding of the precursor molecules which was accomplished by CD and Fluorescence Spectroscopy. Fluorescence emission at 360 nm was monitored simultaneously with the CD scan (the measuring beam served as the excitation light) using a second monochromator and photomultiplier in 90° geometry with respect to the CD absorption path. Thereby, temperature-dependent excitation spectra of the tryptophan at position two in the synthetic IL-10R1 mimetics were additionally obtained with the CD data acquisition.

mIL-10C149Y [2] = biological target: T1, mIL-10C149Y; test: Isothermal titration calorimetry (ITC); assay type: binding, murine; details: for TΔS, entropic component of binding / ΔH, enthalpic term of binding: ITC; for TΔS, entropic component of binding / ΔH, enthalpic term of binding / Kd: 298 K; for Kd: inferred from ITC thermodynamic data, single site model, variable stoichiometry; for fold increase of binding affinity with respect to M2-M4 / fold increase of binding with respect to M1: ratio of Kd values; for fold increase of binding with respect to M1: M1 Kd from thermal denaturation
Excerpt: Further ligand optimization was accomplished by the introduction of an additional N-terminal H-bond acceptor such as Gln or Glu (M5, M6), which would allow interactions with the cationic side chains of IL-10R27 and IL-10K34 (helix A) or with IL-10N148 (helix F’) (Fig 2A). Favourable energies obtained for the interaction of IL-10 with an aliphatic carboxylate chemical probe supported this rationale. Furthermore, residues IL-10L46 (loop AB) and IL-10I145 (helix F’) would additionally contribute with van der Waals interactions with the aliphatic moieties of the side chains of the residues introduced at the N-teminus. […] Furthermore, these measurements supported the expected stoichiometry 2:1 mimetic:dimer-protein binding ratio as previously observed for the IL-10R1/IL-10 complex.
The final constant heat signals were subtracted to correct for the solution enthalpy of the respective IL-10R1 mimetics. The resulting integrated heat curve was analyzed with the associated software Origin 9 [74] allowing a variable stoichiometry but restriction to a single Kd value (identical binding sites of the dimeric protein).

| SMILES | increase of native protein structure in presence of mimetic, percentage of the total change in the CD signal (mIL-10C149Y [1]) | Kd (mIL-10C149Y [1]) | TΔS, entropic component of binding (mIL-10C149Y [2]) | ΔH, enthalpic term of binding (mIL-10C149Y [2]) | Kd (mIL-10C149Y [2]) | fold increase of binding affinity with respect to M2-M4 (mIL-10C149Y [2]) | fold increase of binding with respect to M1 (mIL-10C149Y [2]) |
| --- | --- | --- | --- | --- | --- | --- | --- |
| CC(=O)N[C@H]1CCCCNC(=O)C[C@@H](C(=O)N[C@H]2CCCCNC(=O)C[C@@H](C(=O)N[C@@H](CCCNC(=N)N)C(=O)N[C@@H](C)C(N)=O)NC(=O)[C@H](C(C)C)NC(=O)[C@H](CCCCN)NC(=O)[C@H](CCCNC(=N)N)NC2=O)NC(=O)[C@H](Cc2ccc(O)cc2)NC(=O)[C@H](CCCNC(=N)N)NC(=O)[C@H](Cc2c[nH]c3ccccc23)NC1=O [M1] (Ac-KWRYDKRKVDRA-NH2; lactam 1-5, 6-10) | 8% | > 30 µM | – | – | – | – | – |
| CC(C)[C@@H]1NC(=O)[C@H](CCCCN)NC(=O)[C@H](CCCNC(=N)N)NC(=O)[C@@H](NC(=O)[C@@H]2CC(=O)NCCCC[C@H](NC(=O)CCCNC(=N)N)C(=O)N[C@@H](Cc3c[nH]c4ccccc34)C(=O)N[C@@H](CCCNC(=N)N)C(=O)N[C@@H](Cc3ccc(O)cc3)C(=O)N2)CCCCNC(=O)C[C@@H](C(=O)N[C@@H](CCCNC(=N)N)C(=O)N[C@@H](C)C(N)=O)NC1=O [M2] ({Butanoyl(4-guanidino)}-KWRYDKRKVDRA-NH2; lactam 1-5, 6-10) | 16% | 5 µM | – | – | – | – | – |
| CC(C)[C@@H]1NC(=O)[C@H](CCCCN)NC(=O)[C@H](CCCNC(=N)N)NC(=O)[C@@H](NC(=O)[C@@H]2CC(=O)NCCCC[C@H](NC(=O)CCCNC(=N)N)C(=O)N[C@@H](Cc3c[nH]c4ccc(O)cc34)C(=O)N[C@@H](CCCNC(=N)N)C(=O)N[C@@H](Cc3ccc(O)cc3)C(=O)N2)CCCCNC(=O)C[C@@H](C(=O)N[C@@H](CCCNC(=N)N)C(=O)N[C@@H](C)C(N)=O)NC1=O [M3] ({Butanoyl(4-guanidino)}-K[Trp(5-OH)]RYDKRKVDRA-NH2; lactam 1-5, 6-10) | 12% | 6.7 µM | – | – | – | – | – |
| CC(=O)N[C@@H](CCCNC(=N)N)C(=O)N[C@H]1CCCCNC(=O)C[C@@H](C(=O)N[C@H]2CCCCNC(=O)C[C@@H](C(=O)N[C@@H](CCCNC(=N)N)C(=O)N[C@@H](C)C(N)=O)NC(=O)[C@H](C(C)C)NC(=O)[C@H](CCCCN)NC(=O)[C@H](CCCNC(=N)N)NC2=O)NC(=O)[C@H](Cc2ccc(O)cc2)NC(=O)[C@H](CCCNC(=N)N)NC(=O)[C@H](Cc2c[nH]c3ccccc23)NC1=O [M4] (Ac-RKWRYDKRKVDRA-NH2; lactam 2-6, 7-11) | 11% | 8.4 µM | – | – | – | – | – |
| CC(=O)N[C@@H](CCC(=O)O)C(=O)N[C@@H](CCCCN)C(=O)N[C@H]1CCCCNC(=O)C[C@@H](C(=O)N[C@H]2CCCCNC(=O)C[C@@H](C(=O)N[C@@H](CCCNC(=N)N)C(=O)N[C@@H](C)C(N)=O)NC(=O)[C@H](C(C)C)NC(=O)[C@H](CCCCN)NC(=O)[C@H](CCCNC(=N)N)NC2=O)NC(=O)[C@H](Cc2ccc(O)cc2)NC(=O)[C@H](CCCNC(=N)N)NC(=O)[C@H](Cc2c[nH]c3ccccc23)NC1=O [M5] (Ac-EKKWRYDKRKVDRA-NH2; lactam 3-7, 8-12) | – | – | 9.5 kcal/mol | -0.5 kcal/mol | 0.07 ± 0.02 µM | more than 70 fold | more than 400 fold |
| CC(=O)N[C@@H](CCC(=O)O)C(=O)N[C@@H](CCCNC(=N)N)C(=O)N[C@H]1CCCCNC(=O)C[C@@H](C(=O)N[C@H]2CCCCNC(=O)C[C@@H](C(=O)N[C@@H](CCCNC(=N)N)C(=O)N[C@@H](C)C(N)=O)NC(=O)[C@H](C(C)C)NC(=O)[C@H](CCCCN)NC(=O)[C@H](CCCNC(=N)N)NC2=O)NC(=O)[C@H](Cc2ccc(O)cc2)NC(=O)[C@H](CCCNC(=N)N)NC(=O)[C@H](Cc2c[nH]c3ccccc23)NC1=O [M6] (Ac-ERKWRYDKRKVDRA-NH2; lactam 3-7, 8-12) | – | – | 9.5 kcal/mol | -0.5 kcal/mol | 0.04 ± 0.02 µM | more than 70 fold | more than 400 fold |
